Measured values from patent EP4050002A1, “ANTI-PROLIFERATIVE AGENTS” (First Health Pharmaceuticals B.V., priority 2021, dated 2022).

Tested on: K562 cell line
Assay: Cytotoxicity, MTS method
Type: cell-based
Conditions: Homo sapiens, K562, 72 hours of incubation
Protocol: The anti-tumor activity of the compounds of the present invention was evaluated as the effect on the proliferation and survival of tumor cells by counting the number of living cells in presence or absence of the compounds ("cell count method"), and as the effect on the viability and metabolic activity of the cells, by using particular substrates that are converted by cellular enzymes into coloured or luminescent products, proportionally with metabolic activity and state of the cell, such as the MTS tetrazolium compound ("MTS method") or luciferin ("ATP-based method") respectively.
Cells were seeded at 3 to 5 x 10^4 cells/well density depending on cell lines and maintained at 37°C in 5% CO2. After 24 hours cells were treated with ascending concentrations of the investigational compounds and the reference (5-fluoro-Uracyl) in a range from 0 to 100 µM. […] After 72 h of incubation with compounds, the cells were detached with trypsin and re-suspended in 1 ml of complete medium; the cell number was evaluated using a Z2 Coulter Counter ("cell count method") (Attallah and Johnson, A simple highly sensitive methods for the determination of cell viability using an electronic particle analyzer, Coulter counter J. Immunol. Methods. 1981, 41, 155; Leonardi et al., Activated kinase screening identifies the IKBKE oncogene as a positive regulator of autophagy. Autophagy, 2019, 15, 312). […]

CCCCc1cn(-c2ccc(-c3nnc(-c4ccccc4C(F)(F)F)o3)cc2)nn1 [Compound 5]
IC50: 20.3 µM
